Like-named read-outs stand apart in the source and are kept apart here.
What was measured:
intracellular MRSA = assay type: cell-based, Staphylococcus aureus; conditions: for %GFP+ rep 1 / z-scoreMRSA+ rep 1: replicate 1; for %GFP+ rep 2 / z-scoreMRSA+ rep 2: replicate 2; for %GFP+ rep 3 / z-scoreMRSA+ rep 3: replicate 3; for z-scoreMRSA+ mean: mean of 3 replicates; on %GFP+ rep 1: test concentration or dose not given here; on %GFP+ rep 2: test concentration or dose not given here; on %GFP+ rep 3: test concentration or dose not given here; on effect: test concentration or dose not given here; on z-scoreMRSA+ mean: test concentration or dose not given here; on z-scoreMRSA+ rep 1: test concentration or dose not given here; on z-scoreMRSA+ rep 2: test concentration or dose not given here; on z-scoreMRSA+ rep 3: test concentration or dose not given here
Method in brief: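 Values are z-scores: GFP-positive HeLa percentage and event count per well against plate statistics, minus the mean DMSO z-score. Wells deviating two-fold from controls were left out of plate means. Infection was at a mean MOI of 6.8, with an overnight compound exposure.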

HeLa cells = assay: Compound screen by flow cytometry: HeLa cell count as surrogate readout of cell viability (z-scoreHeLa); assay type: cell-based, human; conditions: for cell count rep 1 / z-scoreHeLa rep 1: replicate 1; for cell count rep 2 / z-scoreHeLa rep 2: replicate 2; for cell count rep 3 / z-scoreHeLa rep 3: replicate 3; for z-scoreHeLa mean: mean of 3 replicates; on all read-outs here: test concentration or dose not given here
Method in brief: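 The viability surrogate was the count of fixed HeLa cells by flow cytometry, converted to z-scores against DMSO controls with values deviating two-fold excluded. Before counting, cells had been infected with MRSA for 1 h and cleared of extracellular bacteria with gentamicin. They were then exposed overnight to kinase inhibitors in triplicate.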

[1] = PKIS compounds raw data, MRSA-infected HeLa cells
[2] = Yes/No: effect without cell death
[3] = compound screen, MRSA-infected HeLa cells
[4] = PKIS compounds raw data, HeLa cell count
[5] = compound screen, HeLa cell count
[6] = PKIS compound screen raw data, MRSA-infected HeLa cells
[7] = PKIS compound screen, MRSA-infected HeLa cells
[8] = PKIS compound screen, Yes/No call
[9] = PKIS compound screen, Yes/No call (effect without cell death)
[10] = PKIS compound screen, Yes/No call on z-scoreMRSA+
[11] = PKIS compound screen raw data, HeLa cell count
[12] = PKIS compound screen, HeLa cell count
[13] = PKIS compound screen, Yes/No call on z-scoreHeLa

SMILES	%GFP+ rep 1 (intracellular MRSA; [1]) [%]	%GFP+ rep 2 (intracellular MRSA; [1]) [%]	%GFP+ rep 3 (intracellular MRSA; [1]) [%]	cell count rep 1 (HeLa cells; [4])	cell count rep 2 (HeLa cells; [4])	cell count rep 3 (HeLa cells; [4])	%GFP+ rep 1 (intracellular MRSA; [6]) [%]	%GFP+ rep 2 (intracellular MRSA; [6]) [%]	%GFP+ rep 3 (intracellular MRSA; [6]) [%]	z-scoreMRSA+ mean (intracellular MRSA; [7])	z-scoreMRSA+ rep 1 (intracellular MRSA; [7])	z-scoreMRSA+ rep 2 (intracellular MRSA; [7])	z-scoreMRSA+ rep 3 (intracellular MRSA; [7])	effect (intracellular MRSA; [8])	hit (intracellular MRSA; [9])	effect (intracellular MRSA; [10])	z-scoreMRSA+ mean (intracellular MRSA; PKIS compound screen)	cell count rep 1 (HeLa cells; [11])	cell count rep 2 (HeLa cells; [11])	cell count rep 3 (HeLa cells; [11])	also measured
COc1cc(Nc2ncc(-c3ccccc3)o2)cc(OC)c1OC [GW627512B]	11.0	12.1	12.6	2360	2993	4653	–	–	–	–	–	–	–	–	–	–	–	–	–	–	effect (intracellular MRSA; Yes/No call from z-scoreMRSA+): No; hit (intracellular MRSA; [2]): No; z-scoreMRSA+ mean (intracellular MRSA; [3]): -0.71; z-scoreMRSA+ rep 1 (intracellular MRSA; [3]): -0.70; z-scoreMRSA+ rep 2 (intracellular MRSA; [3]): -0.47; z-scoreMRSA+ rep 3 (intracellular MRSA; [3]): -0.97; cell death (HeLa cells; Yes/No call from z-scoreHeLa): No; z-scoreHeLa mean (HeLa cells; [5]): -1.42; z-scoreHeLa rep 1 (HeLa cells; [5]): -2.18; z-scoreHeLa rep 2 (HeLa cells; [5]): -0.96; z-scoreHeLa rep 3 (HeLa cells; [5]): -1.10
O=C(NC1CCN(c2ccnc(Nc3ccc(F)cc3)n2)C1)c1cc2ccccc2s1 (centres unmarked) [GSK1379716A]	28.4	27.5	26.9	5074	4507	6035	18.9	18.2	21.3	-0.09	0.0322	-0.33	0.0175	No	No	No	0.16	35239	17173	16326	z-scoreMRSA+ rep 1 (intracellular MRSA; PKIS compound screen): 0.26; z-scoreMRSA+ rep 2 (intracellular MRSA; PKIS compound screen): 0.28; z-scoreMRSA+ rep 3 (intracellular MRSA; PKIS compound screen): -0.07; z-scoreHeLa mean (HeLa cells; [12]): -0.35; z-scoreHeLa rep 1 (HeLa cells; [12]): 0.85; z-scoreHeLa rep 2 (HeLa cells; [12]): -1.39; z-scoreHeLa rep 3 (HeLa cells; [12]): -0.51; cell death (HeLa cells; [8]): No; cell death (HeLa cells; [13]): No; z-scoreHeLa mean (HeLa cells; PKIS compound screen): -0.43; z-scoreHeLa rep 1 (HeLa cells; PKIS compound screen): -0.58; z-scoreHeLa rep 2 (HeLa cells; PKIS compound screen): -1.00; z-scoreHeLa rep 3 (HeLa cells; PKIS compound screen): 0.28
COc1ccc(S(=O)(=O)NC2CCN(c3cc(C)nc(Nc4cccc(C#N)c4)n3)CC2)cc1 [GSK1653539A]	31.4	29.6	35.0	6417	7400	5350	17.8	20.5	23.1	0.18	-0.26	0.30	0.51	No	No	No	0.99	25166	21326	16886	z-scoreMRSA+ rep 1 (intracellular MRSA; PKIS compound screen): 0.85; z-scoreMRSA+ rep 2 (intracellular MRSA; PKIS compound screen): 0.68; z-scoreMRSA+ rep 3 (intracellular MRSA; PKIS compound screen): 1.43; z-scoreHeLa mean (HeLa cells; [12]): -0.64; z-scoreHeLa rep 1 (HeLa cells; [12]): -0.85; z-scoreHeLa rep 2 (HeLa cells; [12]): -0.68; z-scoreHeLa rep 3 (HeLa cells; [12]): -0.40; cell death (HeLa cells; [8]): No; cell death (HeLa cells; [13]): No; z-scoreHeLa mean (HeLa cells; PKIS compound screen): 0.33; z-scoreHeLa rep 1 (HeLa cells; PKIS compound screen): 0.22; z-scoreHeLa rep 2 (HeLa cells; PKIS compound screen): 0.92; z-scoreHeLa rep 3 (HeLa cells; PKIS compound screen): -0.16
O=C(c1ccc(-c2cc(-c3c[nH]nc3-c3ccccn3)ccn2)cc1)N1CCCC1 [GW792479X]	–	–	–	–	–	–	20.2	21.2	21.9	–	–	–	–	–	–	–	–	29405	27776	26310	effect (intracellular MRSA; Yes/No call from z-scoreMRSA+): No; hit (intracellular MRSA; [2]): No; z-scoreMRSA+ mean (intracellular MRSA; [3]): 0.35; z-scoreMRSA+ rep 1 (intracellular MRSA; [3]): 0.38; z-scoreMRSA+ rep 2 (intracellular MRSA; [3]): 0.49; z-scoreMRSA+ rep 3 (intracellular MRSA; [3]): 0.18; cell death (HeLa cells; Yes/No call from z-scoreHeLa): No; z-scoreHeLa mean (HeLa cells; [5]): 0.58; z-scoreHeLa rep 1 (HeLa cells; [5]): -0.13; z-scoreHeLa rep 2 (HeLa cells; [5]): 0.43; z-scoreHeLa rep 3 (HeLa cells; [5]): 1.44
Cc1ccc(O)cc1Nc1ccnc2cc(-c3ccc(CN4CCCCC4)o3)ccc12 [GW557777X]	–	–	–	–	–	–	13.1	14.2	14.8	-1.44	-1.51	-1.30	-1.52	–	No	No	–	30186	37597	49690	z-scoreHeLa mean (HeLa cells; [12]): 1.17; z-scoreHeLa rep 1 (HeLa cells; [12]): 1.53; z-scoreHeLa rep 2 (HeLa cells; [12]): 0.52; z-scoreHeLa rep 3 (HeLa cells; [12]): 1.46; cell death (HeLa cells; [13]): No
c1ccc(Cn2ncc3cc(Nc4ncnc5ccccc45)ccc32)cc1 [GW273749A]	26.5	27.8	28.8	9337	8148	8467	–	–	–	–	–	–	–	No	No	–	0.17	–	–	–	z-scoreMRSA+ rep 1 (intracellular MRSA; PKIS compound screen): -0.11; z-scoreMRSA+ rep 2 (intracellular MRSA; PKIS compound screen): 0.34; z-scoreMRSA+ rep 3 (intracellular MRSA; PKIS compound screen): 0.28; cell death (HeLa cells; [8]): No; z-scoreHeLa mean (HeLa cells; PKIS compound screen): 1.74; z-scoreHeLa rep 1 (HeLa cells; PKIS compound screen): 1.98; z-scoreHeLa rep 2 (HeLa cells; PKIS compound screen): 1.42; z-scoreHeLa rep 3 (HeLa cells; PKIS compound screen): 1.82

— publication PMC10999543, “Identification of kinase modulators as host-directed therapeutics against intracellular methicillin-resistant Staphylococcus aureus” (Frontiers in Cellular and Infection Microbiology, 2024)
